“And” between values parts separate entries of the source, which are not always exact repeats. Identical values can stand only once. Inconclusive results and toxic doses are left out.

Our source for the T/C values is PubChem BioAssay AID248 (DTP/NCI, 2004).

The subject of this test is L1210 leukemia ip in BDF1 mice, survival T/C. As to the kind of experiment: NCI In Vivo Anticancer Drug Screen. Data for tumor model L1210 Leukemia (intraperitoneal) in B6D2F1 (BDF1) mice. The note with it: endpoint: mean survival time, higher = longer survival. In a few lines:
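Tumor cells were implanted, animals were treated, and survival was followed. The result divides the treated measurement by the vehicle-control measurement.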

Where [1] appears, read: dose: 100.0 mg/kg/injection, schedule: Q01DX009 (ip), vehicle: Klucel (hydroxypropylcellulose) (HPC).
Setting [2] is: dose: 100.0 mg/kg/injection, schedule: Q04DX003 (ip), vehicle: Klucel (hydroxypropylcellulose) (HPC).
Where [3] appears, read: dose: 200.0 mg/kg/injection, schedule: Q01DX009 (ip), vehicle: Klucel (hydroxypropylcellulose) (HPC).
Setting [4] is: dose: 200.0 mg/kg/injection, schedule: Q04DX003 (ip), vehicle: Klucel (hydroxypropylcellulose) (HPC).
Setting [5] is: dose: 400.0 mg/kg/injection, schedule: Q01DX009 (ip), vehicle: Klucel (hydroxypropylcellulose) (HPC).
Where [6] appears, read: dose: 400.0 mg/kg/injection, schedule: Q04DX003 (ip), vehicle: Klucel (hydroxypropylcellulose) (HPC).
Where [7] appears, read: dose: 100.0 mg/kg/injection, schedule: Q01DX001 (ip), vehicle: saline.
Setting [8] is: dose: 100.0 mg/kg/injection, schedule: Q04DX002 (ip), vehicle: Klucel (hydroxypropylcellulose) (HPC).
The mark [9] stands for this setting: dose: 200.0 mg/kg/injection, schedule: Q04DX002 (ip), vehicle: Klucel (hydroxypropylcellulose) (HPC).
Setting [10] is: dose: 400.0 mg/kg/injection, schedule: Q04DX002 (ip), vehicle: Klucel (hydroxypropylcellulose) (HPC).
The mark [11] stands for this setting: dose: 12.5 mg/kg/injection, schedule: Q01DX009 (ip), vehicle: Klucel (hydroxypropylcellulose) (HPC).
The mark [12] stands for this setting: dose: 25.0 mg/kg/injection, schedule: Q01DX009 (ip), vehicle: Klucel (hydroxypropylcellulose) (HPC).
Where [13] appears, read: dose: 50.0 mg/kg/injection, schedule: Q01DX009 (ip), vehicle: Klucel (hydroxypropylcellulose) (HPC).
The mark [14] stands for this setting: dose: 200.0 mg/kg/injection, schedule: Q01DX001 (ip), vehicle: saline.
[15] abbreviates: dose: 400.0 mg/kg/injection, schedule: Q01DX001 (ip), vehicle: saline.

With `CC(C)(C)C(=O)CC(=O)C(C)(C)C.CC(C)(C)C(=O)CC(=O)C(C)(C)C.CC(C)(C)C(=O)CC(=O)C(C)(C)C.[Sm]`, the T/C is 112 % of control (dose: 100.0 mg/kg/injection, schedule: Q01DX005 (ip), vehicle: saline); 106 % of control (dose: 100.0 mg/kg/injection, schedule: Q01DX009 (ip), vehicle: saline); 92 % of control (dose: 100.0 mg/kg/injection, schedule: Q04DX002 (ip), vehicle: saline); 109 % of control (dose: 200.0 mg/kg/injection, schedule: Q01DX005 (ip), vehicle: saline); 103 % of control (dose: 200.0 mg/kg/injection, schedule: Q01DX009 (ip), vehicle: saline); 95 % of control (dose: 200.0 mg/kg/injection, schedule: Q04DX002 (ip), vehicle: saline). Besides, the T/C reads like this: (dose: 400.0 mg/kg/injection, schedule: Q01DX005 (ip), vehicle: saline) 98 % of control; (dose: 400.0 mg/kg/injection, schedule: Q01DX009 (ip), vehicle: saline) 98 % of control; (dose: 400.0 mg/kg/injection, schedule: Q04DX002 (ip), vehicle: saline) 103 % of control.

As for `Nc1cc(NC(c2ccccc2)c2ccccc2)c(N)c(N)n1`, the T/C runs as follows: (dose: 100.0 mg/kg/injection, schedule: Q01DX001 (ip), vehicle: gum acacia) 88 % of control; (dose: 200.0 mg/kg/injection, schedule: Q01DX001 (ip), vehicle: gum acacia) 90 % of control; (dose: 400.0 mg/kg/injection, schedule: Q01DX001 (ip), vehicle: gum acacia) 92 % of control.

Take `O=C(Nc1cccc(Cl)c1)OCC(Cl)(Cl)Cl`: the T/C was 88 % of control under setting [1]; 98 % of control under setting [2]; 95 % of control under setting [3]; 104 % of control under setting [4]; 92 % of control under setting [5]; 100 % of control under setting [6].

Take `COC(=O)C1(C)CCCC2(C)C3CCC4(C)CC3(CCC12)OC4C` (centres undefined): the T/C runs as follows: (dose: 100.0 mg/kg/injection, schedule: Q04DX002 (ip), vehicle: saline with Tween-80) 95 % of control; (dose: 200.0 mg/kg/injection, schedule: Q04DX002 (ip), vehicle: saline with Tween-80) 100 % of control; (dose: 400.0 mg/kg/injection, schedule: Q04DX002 (ip), vehicle: saline with Tween-80) 89 % of control.

For the molecule `COc1cccc2c1[nH]c1cc3ccncc3cc12`, the T/C is 107 % of control (dose: 25.0 mg/kg/injection, schedule: Q01DX001 (ip), vehicle: saline); 112 % of control (dose: 50.0 mg/kg/injection, schedule: Q01DX001 (ip), vehicle: saline); 98 % of control and 102 % of control under setting [7]; 95 % of control under setting [2]; 95 % of control under setting [4].

Take `CS(=O)(=O)Cc1ccccc1`: the T/C was 101 % of control under setting [1]; 86 % of control under setting [8]; 101 % of control under setting [3]; 101 % of control under setting [9]; 86 % of control under setting [5]; 90 % of control under setting [10].

`NC(CSS(=O)(=O)O)=NCc1ccccc1`: the T/C is, setting by setting: (dose: 12.5 mg/kg/injection, schedule: Q04DX002 (ip), vehicle: Klucel (hydroxypropylcellulose) (HPC)) 114 % of control; (dose: 25.0 mg/kg/injection, schedule: Q04DX002 (ip), vehicle: Klucel (hydroxypropylcellulose) (HPC)) 101 % of control; (dose: 50.0 mg/kg/injection, schedule: Q04DX002 (ip), vehicle: Klucel (hydroxypropylcellulose) (HPC)) 97 % of control.

As to `CCC1(/C(C)=C/C(C)C)C(=O)NC(=O)NC1=O`, the T/C (dose: 5.0 mg/kg/injection, schedule: Q01DX001 (ip), vehicle: saline) was 96 % of control and the T/C (dose: 10.0 mg/kg/injection, schedule: Q01DX001 (ip), vehicle: saline) was 101 % of control.

For the molecule `C[N+](C)(C)CCCC#CC[N+]1(C)CCOCC1`, the T/C reads like this: (dose: 8.4 mg/kg/injection, schedule: Q01DX009 (ip), vehicle: saline) 151 % of control; (dose: 14.0 mg/kg/injection, schedule: Q01DX009 (ip), vehicle: saline) 197 % of control; (dose: 39.0 mg/kg/injection, schedule: Q01DX009 (ip), vehicle: saline) 96 % of control; (dose: 65.0 mg/kg/injection, schedule: Q07DX009 (ip), vehicle: saline) 157 % of control; (dose: 108.0 mg/kg/injection, schedule: Q07DX009 (ip), vehicle: saline) 190 % of control; (dose: 180.0 mg/kg/injection, schedule: Q07DX009 (ip), vehicle: saline) 177 % of control. Moreover, under “dose: 300.0 mg/kg/injection, schedule: Q07DX009 (ip), vehicle: saline”, the T/C was 123 % of control.

Regarding `Cc1ccc(S(=O)(=O)N2CCOCCOCCOc3ccc4ccccc4c3-c3c(ccc4ccccc34)OCCOCC2)cc1`, the T/C was 95 % of control (dose: 100.0 mg/kg/injection, schedule: Q01DX001 (ip), vehicle: saline with Tween-80); 88 % of control (dose: 200.0 mg/kg/injection, schedule: Q01DX001 (ip), vehicle: saline with Tween-80); 95 % of control (dose: 400.0 mg/kg/injection, schedule: Q01DX001 (ip), vehicle: saline with Tween-80).

Take `COc1ccccc1-n1c(O)c(N=Nc2ccc(Cl)cc2)c(=O)n(-c2ccc(Br)cc2)c1=S`: the T/C reads like this: (dose: 100.0 mg/kg/injection, schedule: Q01DX001 (ip), vehicle: Klucel (hydroxypropylcellulose) (HPC)) 89 % of control; (dose: 200.0 mg/kg/injection, schedule: Q01DX001 (ip), vehicle: Klucel (hydroxypropylcellulose) (HPC)) 92 % of control.

For the molecule `O=C(Nc1ccc(Nc2ccncc2)cc1)c1ccc([N+](=O)[O-])cc1`, the T/C was 105 % of control under setting [1]; 103 % of control under setting [2]; 92 % of control under setting [3]; 98 % of control under setting [4]; 105 % of control under setting [5]; 95 % of control under setting [6].

As for `COc1ccc(NC(=O)Nc2cc(Cl)ccc2OC)cc1`, the T/C was 90 % of control under setting [11]; 93 % of control under setting [12]; 93 % of control under setting [13]; 99 % of control under setting [2]; 92 % of control under setting [4]; 90 % of control under setting [6].

As for `Cc1c(C(=O)O)c(-c2ccc([N+](=O)[O-])cc2)c(C=O)n1-c1ccccc1`, the T/C reads like this: under setting [8], 91 % of control; under setting [9], 97 % of control; under setting [10], 102 % of control.

As for `CC1c2cc(O)c(O)cc2CCN1C` (centres undefined), the T/C (dose: 75.0 mg/kg/injection, schedule: Q01DX001 (ip), vehicle: saline) was 104 % of control and the T/C (dose: 150.0 mg/kg/injection, schedule: Q01DX001 (ip), vehicle: saline) was 110 % of control.

`CN(C)c1ccc(/C=C/c2nc3ccc([N+](=O)[O-])cc3[nH]2)cc1`: the T/C under setting [13] is 97 % of control; the T/C under setting [1] is 97 % of control; the T/C under setting [2] is 97 % of control; the T/C under setting [3] is 92 % of control; the T/C under setting [4] was 102 % of control; the T/C under setting [5] is 94 % of control. Also, under setting [6], the T/C was 103 % of control.

In the case of `O=c1[nH]c2ccccc2n1C1CCN(CCCC(c2ccc(F)cc2)c2ccc(F)cc2)CC1`, the T/C runs as follows: under setting [11], 100 % of control; under setting [12], 120 % of control; (dose: 25.0 mg/kg/injection, schedule: Q04DX003 (ip), vehicle: Klucel (hydroxypropylcellulose) (HPC)) 88 % of control; (dose: 50.0 mg/kg/injection, schedule: Q04DX003 (ip), vehicle: Klucel (hydroxypropylcellulose) (HPC)) 104 % of control; under setting [1], 88 % of control; under setting [2], 104 % of control. The T/C was 109 % of control under setting [4] and 95 % of control under setting [6].

For `O=C(CCBr)N1CCCN(C(=O)CCBr)CC1`, the T/C is, setting by setting: (dose: 106.0 mg/kg/injection, schedule: Q01DX Z (ip), vehicle: carboxymethylcellulose (CMC)) 114 % of control; (dose: 160.0 mg/kg/injection, schedule: Q01DX Z (ip), vehicle: carboxymethylcellulose (CMC)) 119 % of control.

In the case of `CC(=O)OC1=C(C)C2=C3OC(=O)C(C)=C3CC[C@@]2(C)CC1`, the T/C runs as follows: under setting [7], 97 % of control; under setting [14], 101 % of control; under setting [15], 95 % of control.

Consider `COc1cc(C(O)C(=O)O)c([N+](=O)[O-])cc1OC` (centres undefined), for which the T/C was 96 % of control under setting [7], 91 % of control under setting [14] and 91 % of control under setting [15].
